From patent publication US20200079757A1, “COMPOUNDS FOR THE TREATMENT OF RESPIRATORY DISEASES” (THE UNIVERSITY OF MELBOURNE, priority 2017, published 2020)
Read-outs that look alike come from different tables or passages of the source.

Tests used:
TGFβ-activated A549 = TGFβ-activated A549 gene expression (modulation of mRNA level, RT-qPCR); type: cell-based; details: for IC50: Homo sapiens, A549, agent 0.1-10 μM before TGF-β (100 pM) 24 hr
Description: The selected potential candidate was also assayed in A549 alveolar epithelial cells, a commonly-used cell model for epithelial-mesenchymal transition (EMT) investigation. The agents were added at the indicated concentrations 30 min prior to the addition of TGF-β which was incubated for a further 24 hours. Then, the cellular RNA was harvested to measure the regulation of the EMT-associated genes and fibrogenic genes.
A549 alveolar epithelial cells (ATCC, Manasas, Va., USA) were cultured in DMEM containing 5% (v/v) FCS, 15 mM HEPES, 0.2% (v/v) sodium bicarbonate, 2 mM L-glutamine, 1% (v/v) non-essential amino acids, 1% (v/v) sodium pyruvate, 5 IU/mL penicillin and 50 μg/mL streptomycin as previously described (S. Salem, T. Harris, J. Mok Shiueh Lian, M. Yuen Sin Li, C. R. Keenan, M. J. Schuliga, and A. G. Stewart (2012). Transforming growth factor-p impairs glucocorticoid activity in the A549 lung adenocarcinoma cell line. Br J Pharmacol. 166: 2036-2048).
Prior to experimentation, BEAS-2B and A549 cells were incubated in serum-free DMEM containing 0.25% bovine serum albumin (BSA) and insulin-transferrin-selenium—containing supplement (Monomed A; CSL, Parkville, Melbourne, Australia). Where indicated, cells were treated with one of the series of synthesised compounds (0.3-10 μM) prior to exposure to 100 pM TGF-β1 (R&D Systems, Minneapolis, Minn.) or 300 pM bFGF (Promega, Madison, Wis.).
Total RNA was extracted from cultured cells using illustra RNAspin Mini RNA Isolation Kit (GE Healthcare). RNA extracts were reverse-transcribed into cDNA using High-Capacity RNA-to-cDNA Kit (Applied Biosystems). Real-time PCR was then performed using a QuantStudio 6 Flex Real-Time PCR System using iTaq Universal SYBR green supermix and the following thermal protocol: 50° C. (2 min), 95° C. (10 min), then 40 cycles of 95° C. (15 sec), 60° C. (1 min). The threshold cycle (CT) values determined for target genes were normalized against those obtained for 18S ribosomal RNA (18S rRNA), which was included as internal control. The generation of specific PCR products was confirmed by dissociation curve analysis.
EMT is a feature of the pathogenesis of fibrosis that is relevant to epithelial tumour metastases and fibrogenesis in organs such as heart, kidney liver and lung, and is known to contribute to idiopathic pulmonary fibrosis (IPF) as well as being thought to make a contribution to the fibrosis known to occur in asthma and COPD. […] The potencies of PF670462 and SS9-010 in modulating induction of CTGF are not statistically distinguishable. […] The potency of these two agents in regulating vimentin induction by TGF-β could not be assessed, as the concentration-response relationship for PF670462 could not be fitted. However, the effects of SS9-010 were significant at 3 μM, whereas PF670462 (3 μM) had no effect.

[1] = tested on: Bleomycin Model of Pulmonary Fibrosis; test: Bleomycin model of pulmonary fibrosis: BAL protein, BAL cells, lung gene expression; type: in vivo, mouse; details: female C57BI/6 mice; for bleomycin-induced BAL cell number / bleomycin-induced BAL protein: day −1 to 3
Description: All animal experiments were carried out in accordance with ethical guidelines from the University of Melbourne Animal Ethics Committee (AEEC #1513736.1). Six- to 8-week old 20-25 g C57BI/6 mice (ARC, Perth, Australia) received treatment with 35 μL of saline or bleomycin (105 mU per mouse) on day 0 through intranasal administration, as previously described (Langenbach et al., (2007). Can J Physiol Pharmacol, 85, 727-738). Acute and chronic bleomycin mouse models were used to assess the effect of SS9-010 on pulmonary fibrosis in vivo. SS9-010 was administered systemically through intraperitoneal injection or locally to the lungs through inhalation of an aerosol generated using an oxygen concentrator connected to a hudson nebuliser operating at 5 L/min for 15 minutes. […] Mice were allowed food and water ad libitum for the duration of all studies. At the end of each study, bronchoalveolar lavage (BAL) was performed from which leukocyte cell types were enumerated and acelluar protein content was determined as previously described (Langenbach, et al., 2007), lungs were dissected and snap frozen. Gene expression were determined from pulverised frozen lung tissue. Total protein content in acellular BAL fluid was assessed using the BioRad protein assay method. BAL cells in BAL fluid were stained with Erythrosin B (EB) and counted manually with the aid of a hemocytometer. Total BAL cell number was calculated by accounting for the return volume of BAL fluid. The effects of inhaled SS9-010 on bleomycin-induced BAL protein leakage, BAL cell recruitment, lung weight, as well as lung fibrogenic gene expression in mouse lungs are shown in FIG. 9. Female C57BI/6 mice received a transnasal dose of bleomycin or saline on day 0. SS9-010 was administered day −1 to day 3 by daily inhalation of aerosol generated by nebulizing from a concentration of 1 mg/mL for a period of 15 min once daily. Bronchoalveolar lavage (BAL) protein and BAL cell number were assessed. Lung fibrogenic gene expression was also assessed on day 3. Data are presented as mean±SEM (n=6). […] The effects of intraperitoneal injection of SS9-010 on bleomycin-induced BAL protein leakage, BAL cell recruitment, and lung fibrogenic gene expression in mouse lungs are shown in FIG. 10. Female C57BI/6 mice were […] administered bleomycin or saline on day 0. SS9-010 (3 or 10 mg/kg/day, ip) was administered from day −1 to 3. […] Lung fibrogenic gene expression was also assessed on day 3. Data are presented as mean±SEM (n=4 sal, n=5 other groups). Systemic SS9-010 (3 or 10 mg/kg/day, ip) had no effect on BAL protein or BAL cell number. Induction of IL-6 was reduced by SS9-010 treatment, whereas arginase-1 was not.

[2] = tested on: ovalbumin (OVA)-sensitized BALB/c mice; test: Airway hyper-responsiveness to methacholine in acute ovalbumin-induced asthma model; type: in vivo, mouse; details: inhaled, estimated deposited dose 1 μg, day 21 to 28
[3] = read-out: -Log IC50 ± SEM (modulation of mRNA level), CTGF induction (converted)
[4] = read-out: -Log IC50 ± SEM (modulation of mRNA level), Col 1A induction (converted)
[5] = read-out: -Log IC50 ± SEM (modulation of mRNA level), E-Cadherin repression (converted)
[6] = read-out: -Log IC50 ± SEM (modulation of mRNA level), PAI-1 induction (converted)
[7] = inhaled aerosol 1 mg/mL 15 min once daily

IC50 (TGFβ-activated A549; [3])	IC50 (TGFβ-activated A549; [4])	IC50 (TGFβ-activated A549; [5])	IC50 (TGFβ-activated A549; [6])	IC50 (TGFβ-activated A549; read-out: -Log IC50 ± SEM (modulation of mRNA level), Vimentin induction (converted))	Compound	induction of IL-6 (lung gene expression) ([1]; 3 or 10 mg/kg/day ip, day 3)	bleomycin-induced BAL cell number ([1]; 3 or 10 mg/kg/day ip)	bleomycin-induced BAL protein ([1]; 3 or 10 mg/kg/day ip)	bleomycin-induced BAL cell number [1, 7]	bleomycin-induced BAL protein [1, 7]	lung fibrogenic gene expression ([1]; inhaled aerosol 1 mg/mL 15 min once daily, day −1 to 3, assessed day 3)	OVA-induced increase in central airway resistance (Rn) to methacholine [2]	OVA-induced increase in elastance to methacholine [2]	compliance changes, OVA/SS9-010 compared to OVA alone [2]	effect on vimentin induction by TGF-β (TGFβ-activated A549; A549, agent 3 μM)
447 nM	447 nM	2140 nM	661 nM	3890 nM	CNc1nccc(-c2c(-c3ccc(F)cc3)ncn2C2CCCCC2)n1 [SS9-010, 4-(1-Cyclohexyl-4-(4-fluorophenyl)-1H-imidazol-5-yl)-N-methylpyrimidin-2-amine]	reduced	no effect	no effect	modest suppression	showed an effect	showed an effect	attenuated	attenuated	No significant difference	–
1450 nM	3800 nM	8320 nM	3890 nM	–	Cl.Nc1nccc(-c2c(-c3ccc(F)cc3)ncn2C2CCCCC2)n1 [PF670462, 4-(1-Cyclohexyl-4-(4-fluorophenyl)-1H-imidazol-5-yl)pyrimidin-2-amine hydrochloride, reference compound]	–	–	–	–	–	–	–	–	–	no effect
